We go through 11 compounds from patent US10111854B2, “Synthesis and use of amine-containing flavonoids as potent anti-leishmanial agents” (The Hong Kong Polytechnic University, priority 2014, dated 2018).

In general, IC50 refers to the concentration that gives 50% inhibition.

Each structure is given as a SMILES string.

The subject of data set [1] is L. amazonensis LV78 promastigotes. Description: Anti-promastigote activity (MTS assay), L. amazonensis LV78. The data set is classed as cell-based. The settings on record: Leishmania amazonensis, 72 hours. As to the method: (§1) Promastigotes of visceral L. donovani Ld39 and LdHU3, and cutaneous L. amazonensis LV78, L. braziliensis UA847 and L. major FV1 were employed in the study. All strains were cultured in Schneider's Drosophila Medium (Invitrogen), pH 6.9 supplemented with 10% (v/v) heat inactivated fetal bovine serum (Hyclone) with 4 mM glutamine (Sigma) and 25 μg/mL gentamicin solution (Invitrogen) at 27° C. for 4 days. RAW264.7 cells were cultured in supplemented DMEM media with 10% heat inactivated FBS and 100 U/mL penicillin and 100 μg/mL of streptomycin. They were maintained at 37° C. in a humidified atmosphere with 5% CO2. The cells were split constantly after a confluent monolayer has been formed. The cells were harvested by a cell scraper.
(§2) Anti-promastigote activity was determined according to previous procedures (1) by Cell Titer 96® Aqueous Assay (Promega) that employed a tetrazolium compound. Promastigotes were seeded into 96-well flat bottom microtiter plate at 1×10^5 cells per well in a final volume of 100 μL medium and incubated with a series of concentrations of synthetic FM. Parasites were incubated at 27° C. for 72 hours. After 72 hours of incubation, 10 μL of MTS:PMS mixture [MTS:2-(4,5-Dimethylthiazol-2-yl-)-5-[3-(carboxymethoxy)phenyl]-2-(4-sulfophenyl)-2H-tetrazolium); PMS: phenazine methosulfate both purchased from Sigma] was added into each well of microtiter plate. The plate was then incubated at 27° C. for 4 hours for color development. After 4 hours of incubation, the OD values were determined at 490 nm using automatic microtiter plate reader (Bio-Rad).
(§3) IC50 values of known antileishmanials and the amine-containing flavonoid monomers of the present invention to promastigotes (L. amazonensis LV78, L major FV1, L. donovani HU3, L. donovani 39), macrophages (Raw 264.7 and PEM) and mouse fibroblast (L929) were determined. The anti-promastigotes activities and cytotoxicity of the amine-containing flavonoid monomers of the invention are shown in Table 1.
In general terms: Tetrazolium assays rely on reduction of a dye to a coloured formazan, in cell work by metabolically active cells.

The subject of data set [2] is L. donovani HU3 promastigotes. Description: Anti-promastigote activity (MTS assay), L. donovani HU3. In kind it is cell-based. Conditions: Leishmania donovani, 72 hours. The procedure: as §1, §2, §3
A short description of data set [3]: Cytotoxicity, L929 fibroblasts. In kind it is cell-based, mouse. Conditions: mouse. As to the method:
as §3

Data set [4] deals with L. amazonensis LV78 amastigotes. The data set is described as follows: Anti-amastigote activity in infected PEM, L. amazonensis LV78. The data set is classed as cell-based. The settings on record: Leishmania amazonensis, 72 h; infected PEM, 3 days, Giemsa. As to the method:
(§4) Mouse peritoneal elicited macrophages (PEM) were obtained as previously described (2). A round cover slip (12 mm in diameter) was placed into each well of 24-well culture plate. Mouse PEM were resuspended in supplemented DMEM media containing 10% heat inactivated FBS (v/v), 100 U/mL penicillin and 100 μg/mL streptomycin and seeded into each well at a cell density of 1×10^5 cells per 500 μL. Macrophages were allowed to attach overnight. Non-adherent cells were removed by gentle washing with un-supplemented DMEM media twice. Adherent macrophages were infected with late-log promastigotes at a parasite-to-macrophage ratio of 20:1 overnight at 37° C. with 5% CO2. Non-internalized promastigotes were removed by washing twice with un-supplemented DMEM media. Infected macrophages were further incubated in 500 μL of supplemented DMEM media in the presence or absence of FM for 72 hours at 37° C. After incubation, cover slips were stained with Giemsa and the percentage of macrophages infected and number of amastigotes per 100 macrophages was enumerated.
(§5) PEM cells were infected with late-log promastigotes (L. amazonensis LV78, L. braziliensis UA847, L. donovani HU3, L. donovani 39) for 24 hr at 37° C. Infected macrophages were then treated with various antileishmanials and incubated for 3 days at 37° C. After 3 days, the cover slips were stained with Giemsa. The number of amastigotes per 100 macrophages were determined and used to calculate IC50 values.

In data set [5] the test system is L. donovani HU3 amastigotes. The data set is described as follows: Anti-amastigote activity in infected PEM, L. donovani HU3. The settings on record: Leishmania donovani, 72 h; infected PEM, 3 days, Giemsa; SSG-sensitive. In kind it is cell-based. The procedure:
as §4, §5

Data set [6] can be described thus: Cytotoxicity, peritoneal elicited macrophages (PEM). In kind it is cell-based, mouse. The settings on record: mouse, Cytotoxicity IC50, PEM. The procedure:
as §4, §3

Data set [7] concerns L. major FV1 promastigotes. Description: Anti-promastigote activity (MTS assay), L. major FV1. In kind it is cell-based. Conditions: Leishmania major, 72 hours. The procedure: as §1, §2, §3
Data set [8] has as its system L. donovani Ld39 promastigotes. Description: Anti-promastigote activity (MTS assay), L. donovani Ld39. In kind it is cell-based. The settings on record: Leishmania donovani, 72 hours. The procedure:
as §1, §2, §3

Data set [9] has as its system L. donovani Ld39 amastigotes (SSG-resistant). The data set is described as follows: Anti-amastigote activity in infected PEM, L. donovani Ld39. The data set is classed as cell-based. Conditions: for IC50: Leishmania donovani, 72 h, infected PEM, 3 days, Giemsa, SSG-resistant; for Selective index (a)/(c): IC50 RAW264.7 over IC50 L. donovani Ld39 amastigotes. As to the method: as §4, §5

The test system of data set [10] is RAW264.7 cells. The data set is described as follows: Reactive oxygen species (ROS) level, DCFDA, RAW264.7. In kind it is cell-based, murine. As to the method:
(§6) 50,000 RAW264.7 were seeded in each well of black 96-well plates overnight. Next day, RAW264.7 cells were pre-loaded with 10 μM dichlorofluorescein diacetate (DCFDA) (Abcam) for 1 hr at 37° C. with 5% CO2. A control of non-DCFDA stained cells was also included. The DCFDA-contained supplemented DMEM media was removed. The cells were re-suspended with 10 μM or 30 μM of respective tested compounds and positive control, tert-butyl hydroperoxide. In Leishmania, 1×10^7 promastigotes were also pre-loaded with 10 μM DCFDA at 27° C. for 1 hr. After removing the DCFDA-contained media, the promastigotes were seeded into black 96-well plate and incubated with 30 μM of respective compounds or positive control. The ROS level was determined at different periods of time including 2, 4, 6, 8, 20, 46 and 72 hr using microplate reader (excitation: 485 nm and emission: […]).
(§7) The ROS levels in both macrophage RAW264.7 and L. amazonensis promastigotes was measured by dichlorofluorescein diacetate (DCFDA) dye which is permeable to the cells. With oxidative stress, DCFDA would be oxidized to fluorescent DCF which is an indicator of intracellular ROS level. RAW cells or L. amazonensis promastigotes were pre-loaded with 10 μM of DCFDA for 1 hr, washed and exposed to 39, FM09, pentamidine and amphotericin B for different period of time (2, 4, 6, 8, 20, 46 and 72 hr). The fluorescence level was measured at the 520 nm using 485 nm as an excitation wavelength. 0.1% DMSO or 0.3% DMSO was used as a solvent control. The fluorescent value has been subtracted from non-DCFDA stained cells. The values were presented as mean±standard error of mean.

Data set [11] has as its system L. amazonensis LV78 promastigotes. The data set is described as follows: Reactive oxygen species (ROS) level, DCFDA, promastigotes. The data set is classed as cell-based. Conditions: 30 μM. As to the method: as §6, §7

In the case of `O=c1cc(-c2ccc(OCCN3CCN(Cc4ccccn4)CC3)cc2)oc2ccccc12` [FM01a, 2-(4-(2-(4-(pyridin-2-ylmethyl)piperazin-1-yl)ethoxy)phenyl)-4H-chromen-4-one], the IC50 was 11.7 ± 1.34 µM in data set [1]; 15.4 ± 5.98 µM in data set [2]; 60.3 ± 2.3 µM in data set [3]; 8.74 ± 0.77 µM in data set [4]; 10 µM in data set [5].
As for `O=c1cc(-c2ccc(OCCC3CCN(Cc4ccccn4)CC3)cc2)oc2ccccc12` [FM05a, 2-(4-(2-(1-(pyridin-2-ylmethyl)piperidin-4-yl)ethoxy)phenyl)-4H-chromen-4-one], the IC50 in [1] was determined as 2.97 ± 0.91 µM; in [2] it was 7.43 ± 2.15 µM; in data set [3], 58.9 ± 23.3 µM; in data set [6] it was 17.6 µM; in data set [4] it was 3.57 ± 1.73 µM; in [5], 5.2 ± 1.68 µM.
Regarding `O=c1cc(-c2ccc(OCCOCCN(Cc3ncccn3)Cc3ncccn3)cc2)oc2ccccc12` [FM09d, 2-(4-(2-(2-(bis(pyrimidin-2-ylmethyl)amino)ethoxy)ethoxy)phenyl)-4H-chromen-4-one], the IC50 is 35.3 ± 4.2 µM in data set [1]; 42.4 ± 7.65 µM in data set [2]; more than 100 µM in data set [3]; more than 100 µM in data set [6]; more than 10 µM in data set [4]; more than 10 µM in data set [5].
In the case of `O=c1cc(-c2ccc(OCCOCCN(Cc3ncccc3Cl)Cc3ncccc3Cl)cc2)oc2ccccc12` [FM09g, 2-(4-(2-(2-(bis((3-chloropyridin-2-yl)methyl)amino)ethoxy)ethoxy)phenyl)-4H-chromen-4-one], the IC50 in data set [1] is 28.1 ± 5.24 µM; in data set [2] it was 18.1 ± 4.88 µM; in data set [3], 33.7 ± 10.6 µM; in data set [4], more than 10 µM; in [5], more than 10 µM.
As to `O=c1cc(-c2ccc(OCCOCCNCc3ccccn3)cc2)oc2ccccc12` [FM09m, 2-(4-(2-(2-((pyridin-2-ylmethyl)amino)ethoxy)ethoxy)phenyl)-4H-chromen-4-one], the IC50 in [2] is 25.3 ± 3.94 µM; in data set [3], 23.9 ± 1.15 µM; in data set [6] it was 28.4 µM; in [4], 4.46 ± 0.68 µM; in data set [5], 9.3 ± 0.56 µM.
In the case of `O=c1cc(-c2ccc(OCCOCCNC(c3ccccn3)c3ccccn3)cc2)oc2ccccc12` [FM09p, 2-(4-(2-(2-((di(pyridin-2-yl)methyl)amino)ethoxy)ethoxy)phenyl)-4H-chromen-4-one], the IC50 in data set [1] amounted to 2.8 µM; in data set [2], 2.4 µM; in data set [3] it was 2.1 µM; in data set [6], 12.5 µM.
As for `O=C(COc1ccc(-c2cc(=O)c3ccccc3o2)cc1)N1CCNCC1` [FM10, 2-(4-(2-oxo-2-(piperazin-1-yl)ethoxy)phenyl)-4H-chromen-4-one], the 50% inhibitory concentration (IC50) is 31.4 ± 2.4 µM in data set [1]; 78.5 ± 11.3 µM in data set [7]; 37.6 ± 2.8 µM in [2]; 49.5 ± 8 µM in data set [8]; more than 33 µM in [3]; 6 ± 0.2 µM in data set [4]. The IC50 in data set [9] was more than 10 µM.
As to `O=C(COc1ccc(-c2cc(=O)c3ccccc3o2)cc1)N1CCCNCC1` [FM11, 2-(4-(2-(1,4-diazepan-1-yl)-2-oxoethoxy)phenyl)-4H-chromen-4-one], the IC50 in data set [1] was more than 100 µM; in data set [7], more than 100 µM; in [2] it was 66.9 ± 9.7 µM; in [8], more than 100 µM; in [3], more than 33 µM; in [4] it was 7.1 ± 1.6 µM. This compound gave an IC50 in data set [9] of more than 10 µM.
As to `O=C(COc1ccc(-c2cc(=O)c3ccccc3o2)cc1)N1CCN(Cc2ccncc2)CC1` [FM12, 2-(4-(2-oxo-2-(4-(pyridin-4-ylmethyl)piperazin-1-yl)ethoxy)phenyl)-4H-chromen-4-one], the IC50 is more than 100 µM in data set [1]; more than 100 µM in data set [7]; 25.4 ± 3.6 µM in data set [2]; 15 ± 2.2 µM in [8]; more than 100 µM in data set [3]; more than 10 µM in data set [4]. In data set [9], this compound registered an IC50 of more than 10 µM.
As for `O=C(COc1ccc(-c2cc(=O)c3ccccc3o2)cc1)N1CCN(C(=O)c2ccncc2)CC1` [FM16, 2-(4-(2-(4-isonicotinoylpiperazin-1-yl)-2-oxoethoxy)phenyl)-4H-chromen-4-one], the IC50 in [1] is more than 100 µM; in data set [7] it was more than 100 µM; in data set [2], more than 50 µM; in [8] it was 87.1 ± 13 µM; in [3] it was more than 100 µM; in data set [4], more than 10 µM. Besides, the half-inhibitory concentration (IC50) in data set [9] was found to be 5.7 µM. Besides, the “Selective index (a)/(c)” value in data set [9] and in data set [9] (listed as 16) was more than 17.5 in each case.
On to `CC(C)(C)OO` [tert-butyl hydroperoxide], for which the “RAW264.7 ROS Level, Relative fold (RF)” value in [10] (10 μM, 2 hr) was 2.3 fold; in data set [10] (10 μM, 4 hr), 2.3 fold; in data set [10] (10 μM, 6 hr), 2.2 fold; in data set [10] (10 μM, 8 hr) it was 1.9 fold; in data set [10] (10 μM, 20 hr), 1.8 fold; in data set [10] (30 μM, 2 hr), 2.9 fold. Also, the “RAW264.7 ROS Level, Relative fold (RF)” value in [10] (30 μM, 4 hr) was determined as 2.9 fold; in data set [10] (30 μM, 6 hr), 2.6 fold; in data set [10] (30 μM, 20 hr), 1.9 fold; in data set [10] (30 μM, 46 hr), 1.6 fold. The “L. amazon LV78 promastigote ROS Level, Relative fold (RF)” value in data set [11] (2 hr) came to 1.4 fold; in data set [11] (4 hr) it was 1.3 fold; in data set [11] (6 hr) it was 1.4 fold; in data set [11] (20 hr), 1.7 fold; in data set [11] (46 hr), 1.5 fold; in data set [11] (72 hr) it was 1.9 fold.
